Values joined by “and” are separate entries in the source; they are usually repeats but may differ in a detail not shown here. Identical values can stand only once.
Assay: xn = mol fraction of the nth substance listed
Settings: 101.3 kPa, Liquid

N#Cc1ccccc1 [benzonitrile] + Cc1ccc(C)c(C)c1
Settings | excess molar heat capacity, 298.15 K | mass density, 298.15 K [kg/m3] | mass density, 308.15 K [kg/m3]
x1 = 0.0712 | – | 879.01 | –
x1 = 0.0829 | 0.643 J/K/mol | – | –
x1 = 0.1322 | – | 885.6 | 876.48
x1 = 0.1409 | 0.998 J/K/mol and 0.981 J/K/mol | – | –
x1 = 0.1765 | – | 890.46 | 881.29
x1 = 0.2844 | 1.571 J/K/mol and 1.511 J/K/mol | – | –
x1 = 0.2874 | – | 902.94 | 893.72
x1 = 0.3441 | – | 909.49 | 900.27
x1 = 0.377 | 1.621 J/K/mol | – | –
x1 = 0.3967 | – | 915.71 | 906.56
x1 = 0.445 | – | 921.57 | 912.35
x1 = 0.4558 | 1.622 J/K/mol | – | –
x1 = 0.5283 | – | 932.03 | 922.7
x1 = 0.5359 | 1.475 J/K/mol | – | –
x1 = 0.5861 | – | 939.54 | 930.13
x1 = 0.6329 | – | 945.69 | 936.31
x1 = 0.6367 | 1.241 J/K/mol | – | –
x1 = 0.6879 | – | 953.12 | 943.75
x1 = 0.6974 | 1.021 J/K/mol | – | –
x1 = 0.7772 | 0.753 J/K/mol | – | –
x1 = 0.7796 | – | 966.07 | 956.62
x1 = 0.7804 | – | 966.21 | 956.8
x1 = 0.8187 | – | 971.88 | 962.37
x1 = 0.9027 | – | 984.6 | 975.04
x1 = 0.9039 | 0.294 J/K/mol | – | –
x1 = 0.9079 | – | 985.41 | 975.88
x1 = 0.9431 | 0.176 J/K/mol | – | –
x1 = 0.9687 | – | 995.12 | –
x1 = 0.9822 | – | 997.27 | –
x1 = 1 | – | 1000.25 | 990.67

N#Cc1ccccc1 [benzonitrile] + CC(C)c1ccccc1
x1 = 1
Settings | mass density [kg/m3]
298.15 K | 1000.25
308.15 K | 990.67

COc1ccccc1 [anisole] + N#Cc1ccccc1
x2 = 0
Settings | mass density [kg/m3]
298.15 K | 988.98
308.15 K | 978.7

Cc1ccc(C)c(C)c1 [1,2,4-trimethylbenzene] + N#Cc1ccccc1
x2 = 0
Settings | mass density [kg/m3]
298.15 K | 871.56
308.15 K | 862.53

N#Cc1ccccc1 [benzonitrile] + Cc1cc(C)cc(C)c1
Settings | excess molar heat capacity, 298.15 K [J/K/mol] | mass density, 298.15 K [kg/m3] | mass density, 308.15 K [kg/m3]
x1 = 0.073 | – | 869.06 | 860.02
x1 = 0.0754 | 0.726 | – | –
x1 = 0.1029 | 0.966 | – | –
x1 = 0.1412 | – | 876.92 | 867.88
x1 = 0.1917 | – | 882.87 | 873.78
x1 = 0.2104 | 1.56 | – | –
x1 = 0.283 | 1.84 | – | –
x1 = 0.2955 | – | 895.5 | 886.4
x1 = 0.3596 | – | 903.59 | 894.43
x1 = 0.381 | 2.016 | – | –
x1 = 0.4531 | – | 915.84 | 906.58
x1 = 0.4702 | 1.987 | – | –
x1 = 0.5128 | – | 923.9 | 914.75
x1 = 0.5479 | 1.864 | – | –
x1 = 0.6098 | – | 937.51 | 928.28
x1 = 0.6441 | 1.563 | – | –
x1 = 0.7005 | – | 950.89 | 941.57
x1 = 0.712 | 1.3 | – | –
x1 = 0.7895 | – | 964.64 | 955.31
x1 = 0.8092 | 0.861 | – | –
x1 = 0.879 | – | 979.23 | 969.79
x1 = 0.9041 | 0.428 | – | –
x1 = 0.9501 | 0.177 | – | –
x1 = 0.9536 | – | 991.98 | 982.49
x1 = 1 | – | 1000.25 | 990.67

Reference: the NIST ThermoML archive (doi:10.1016/j.jct.2006.09.007)
